Consider 15 compounds from patent US20260297081A1, “COMPOUNDS AND METHODS OF TREATING CANCERS” (Cullgen Inc., priority 2023, published 2026).

In the assay the target is CDK4 (Homo sapiens, UniProt P11802+Q16531). The experiment in a line: HiBiT detection of HiBiT-tagged CDK4 protein level in MCF7 cells, 16 hours (Table 8). The format is cell-based. Also on record: expressed in transfected cells; host or cells: MCF7. The following applies: MCF7 cells stably expressing HiBiT tagged target proteins; for activity at 0.01 µM: 10 nM, read-out: % CDK4 Relative Level (10 nM); for activity at 0.1 µM: 100 nM, read-out: % CDK4 Relative Level (100 nM). Here is the method: HiBiT detection system quantitatively measures total amounts of HiBiT-tagged proteins using a luminescent based method. MCF7 cells stably expressing HiBiT tagged target proteins were treated with heterobifunctional compounds at indicated concentrations for 16 hours, then lysed with Nano-Glo HiBiT Lytic detection reagents.
In general terms: With HiBiT, luminescence reflects the tagged protein that the partner subunit can reach.

Sequence of CDK4 (P11802 whole entry): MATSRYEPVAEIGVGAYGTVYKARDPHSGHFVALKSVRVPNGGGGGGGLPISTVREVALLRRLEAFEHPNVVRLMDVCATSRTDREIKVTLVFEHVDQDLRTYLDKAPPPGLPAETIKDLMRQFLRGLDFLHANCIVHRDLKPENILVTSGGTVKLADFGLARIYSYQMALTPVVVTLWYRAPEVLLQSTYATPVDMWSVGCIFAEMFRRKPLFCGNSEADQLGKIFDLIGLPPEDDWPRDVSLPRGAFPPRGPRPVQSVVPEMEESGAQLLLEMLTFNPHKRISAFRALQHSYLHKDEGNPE
Sequence of CDK4 (P24385 whole entry partner): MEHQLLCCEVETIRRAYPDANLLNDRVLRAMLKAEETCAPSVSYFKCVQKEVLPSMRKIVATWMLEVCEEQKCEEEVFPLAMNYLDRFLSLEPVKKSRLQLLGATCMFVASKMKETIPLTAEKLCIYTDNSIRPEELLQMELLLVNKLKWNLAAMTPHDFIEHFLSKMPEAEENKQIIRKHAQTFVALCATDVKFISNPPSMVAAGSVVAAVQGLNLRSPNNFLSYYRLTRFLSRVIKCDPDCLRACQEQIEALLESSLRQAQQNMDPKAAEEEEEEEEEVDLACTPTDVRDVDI
Sequence of CDK4 (Q16531 2-1140 limits assumed): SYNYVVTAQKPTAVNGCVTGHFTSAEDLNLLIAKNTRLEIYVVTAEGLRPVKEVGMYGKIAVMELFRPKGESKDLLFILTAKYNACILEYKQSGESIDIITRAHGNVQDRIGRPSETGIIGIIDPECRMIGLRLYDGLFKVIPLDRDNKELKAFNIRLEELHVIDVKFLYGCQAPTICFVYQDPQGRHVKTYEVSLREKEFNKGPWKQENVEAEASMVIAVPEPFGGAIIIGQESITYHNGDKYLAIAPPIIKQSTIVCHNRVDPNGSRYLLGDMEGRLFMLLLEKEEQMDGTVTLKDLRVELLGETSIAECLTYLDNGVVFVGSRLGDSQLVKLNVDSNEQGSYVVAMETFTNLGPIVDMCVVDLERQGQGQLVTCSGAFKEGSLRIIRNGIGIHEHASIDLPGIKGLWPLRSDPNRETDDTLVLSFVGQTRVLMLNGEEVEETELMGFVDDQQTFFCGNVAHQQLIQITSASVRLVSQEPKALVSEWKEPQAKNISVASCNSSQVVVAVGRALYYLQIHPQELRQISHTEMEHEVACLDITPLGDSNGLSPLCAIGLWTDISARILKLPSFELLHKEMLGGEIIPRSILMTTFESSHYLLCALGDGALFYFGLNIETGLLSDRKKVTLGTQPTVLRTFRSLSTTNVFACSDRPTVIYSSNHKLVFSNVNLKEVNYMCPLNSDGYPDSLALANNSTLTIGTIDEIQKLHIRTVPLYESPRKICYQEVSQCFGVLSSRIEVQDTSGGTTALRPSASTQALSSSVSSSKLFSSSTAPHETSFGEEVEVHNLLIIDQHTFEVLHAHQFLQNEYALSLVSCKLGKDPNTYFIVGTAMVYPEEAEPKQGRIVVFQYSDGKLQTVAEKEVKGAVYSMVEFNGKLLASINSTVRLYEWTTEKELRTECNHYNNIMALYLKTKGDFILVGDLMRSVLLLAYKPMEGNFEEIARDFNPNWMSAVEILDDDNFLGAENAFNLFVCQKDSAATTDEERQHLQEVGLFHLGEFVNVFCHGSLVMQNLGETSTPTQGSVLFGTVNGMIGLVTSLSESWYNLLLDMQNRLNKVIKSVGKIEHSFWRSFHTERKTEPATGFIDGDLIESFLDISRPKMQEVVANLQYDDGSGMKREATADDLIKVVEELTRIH

On to `CC(C)Nc1ccc(C(=O)Nc2ccc(N(C)C)nn2)c(NC2CC3(CC(NC(=O)CN4CCN(Cc5ccc(Nc6ncc7cc(C(=O)N(C)C)n(C8CCCC8)c7n6)nc5)CC4)C3)C2)n1` (stereo not drawn) [CPD-562, 7-cyclopentyl-2-((5-((4-(2-((6-((3-((6-(dimethylamino)pyridazin-3-yl)carbamoyl)-6-(isopropylamino)pyridin-2-yl)amino)spiro[3.3]heptan-2-yl)amino)-2-oxoethyl)piperazin-1-yl)methyl)pyridin-2-yl)amino)-N,N-dimethyl-7H-pyrrolo[2,3-d]pyrimidine-6-carboxamide], for which the activity at 0.01 µM was more than 85% and the activity at 0.1 µM is more than 85%.
`CC(C)Nc1ccc(C(=O)Nc2ccc(N(C)C)nn2)c(NC2CC3(C2)CN(C(=O)CN2CCN(Cc4ccc(Nc5ncc6cc(C(=O)N(C)C)n(C7CCCC7)c6n5)nc4)CC2)C3)n1` [CPD-563, 7-cyclopentyl-2-((5-((4-(2-(6-((3-((6-(dimethylamino)pyridazin-3-yl)carbamoyl)-6-(isopropylamino)pyridin-2-yl)amino)-2-azaspiro[3.3]heptan-2-yl)-2-oxoethyl)piperazin-1-yl)methyl)pyridin-2-yl)amino)-N,N-dimethyl-7H-pyrrolo[2,3-d]pyrimidine-6-carboxamide]: the activity at 0.01 µM is more than 85% and the activity at 0.1 µM was more than 85%.
With `CC(=O)c1c(C)c2cnc(Nc3ccc(CN4CCC(CC(=O)NC5CC6(C5)CC(Nc5nc(NC(C)C)ccc5C(=O)Nc5ccc(N(C)C)nn5)C6)CC4)cn3)nc2n(C2CCCC2)c1=O` (stereo not drawn) [CPD-593, 2-((6-(2-(1-((6-((6-acetyl-8-cyclopentyl-5-methyl-7-oxo-7,8-dihydropyrido[2,3-d]pyrimidin-2-yl)amino)pyridin-3-yl)methyl)piperidin-4-yl)acetamido)spiro[3.3]heptan-2-yl)amino)-N-(6-(dimethylamino)pyridazin-3-yl)-6-(isopropylamino)nicotinamide], the activity at 0.01 µM is more than 85% and the activity at 0.1 µM was more than 85%.
On to `CCc1ccc(C(=O)Nc2ccc(N(C)C)nn2)c(NC2CC3(CC(NC(=O)CN4CCN(Cc5ccc(Nc6ncc7c(C)c(C(C)=O)c(=O)n(C8CCCC8)c7n6)nc5)CC4)C3)C2)c1` (stereo not drawn) [CPD-598, 2-((6-(2-(4-((6-((6-acetyl-8-cyclopentyl-5-methyl-7-oxo-7,8-dihydropyrido[2,3-d]pyrimidin-2-yl)amino)pyridin-3-yl)methyl)piperazin-1-yl)acetamido)spiro[3.3]heptan-2-yl)amino)-N-(6-(dimethylamino)pyridazin-3-yl)-4-ethylbenzamide], for which the activity at 0.01 µM is 55 to 85% and the activity at 0.1 µM is more than 85%.
The corresponding values for `CNc1ccc(C(=O)Nc2ccc(N(C)C)nn2)c(NCCCCCCC(=O)N2CCN(Cc3ccc(Nc4ncc(F)c(-c5cc(F)c6nc(C)n(C(C)C)c6c5)n4)nc3)CC2)n1` [CPD-604, N-(6-(dimethylamino)pyridazin-3-yl)-2-((7-(4-((6-((5-fluoro-4-(4-fluoro-1-isopropyl-2-methyl-1H-benzo[d]imidazol-6-yl)pyrimidin-2-yl)amino)pyridin-3-yl)methyl)piperazin-1-yl)-7-oxoheptyl)amino)-6-(methylamino)nicotinamide] are more than 85% and more than 85%.
For `CNc1ccc(C(=O)Nc2ccc(N(C)C)nn2)c(NCCCCCCCC(=O)N2CCN(Cc3ccc(Nc4ncc(F)c(-c5cc(F)c6nc(C)n(C(C)C)c6c5)n4)nc3)CC2)n1` [CPD-605, N-(6-(dimethylamino)pyridazin-3-yl)-2-((8-(4-((6-((5-fluoro-4-(4-fluoro-1-isopropyl-2-methyl-1H-benzo[d]imidazol-6-yl)pyrimidin-2-yl)amino)pyridin-3-yl)methyl)piperazin-1-yl)-8-oxooctyl)amino)-6-(methylamino)nicotinamide] the same measures were more than 85% and more than 85%.
`CNc1ccc(C(=O)Nc2ccc(N(C)C)nn2)c(NCCOCCC(=O)N2CCN(Cc3ccc(Nc4ncc(F)c(-c5cc(F)c6nc(C)n(C(C)C)c6c5)n4)nc3)CC2)n1` [CPD-606, N-(6-(dimethylamino)pyridazin-3-yl)-2-((2-(3-(4-((6-((5-fluoro-4-(4-fluoro-1-isopropyl-2-methyl-1H-benzo[d]imidazol-6-yl)pyrimidin-2-yl)amino)pyridin-3-yl)methyl)piperazin-1-yl)-3-oxopropoxy)ethyl)amino)-6-(methylamino)nicotinamide]: the activity at 0.01 µM is more than 85% and the activity at 0.1 µM was more than 85%.
Take `CNc1ccc(C(=O)Nc2ccc(N(C)C)nn2)c(NCCCCNC(=O)CN2CCN(Cc3ccc(Nc4ncc(F)c(-c5cc(F)c6nc(C)n(C(C)C)c6c5)n4)nc3)CC2)n1` [CPD-610, N-(6-(dimethylamino)pyridazin-3-yl)-2-((4-(2-(4-((6-((5-fluoro-4-(4-fluoro-1-isopropyl-2-methyl-1H-benzo[d]imidazol-6-yl)pyrimidin-2-yl)amino)pyridin-3-yl)methyl)piperazin-1-yl)acetamido)butyl)amino)-6-(methylamino)nicotinamide]: the activity at 0.01 µM is more than 85% and the activity at 0.1 µM is more than 85%.
For the compound `CNc1ccc(C(=O)Nc2ccc(N(C)C)nn2)c(NCCCCCNC(=O)CN2CCN(Cc3ccc(Nc4ncc(F)c(-c5cc(F)c6nc(C)n(C(C)C)c6c5)n4)nc3)CC2)n1` [CPD-611, N-(6-(dimethylamino)pyridazin-3-yl)-2-((5-(2-(4-((6-((5-fluoro-4-(4-fluoro-1-isopropyl-2-methyl-1H-benzo[d]imidazol-6-yl)pyrimidin-2-yl)amino)pyridin-3-yl)methyl)piperazin-1-yl)acetamido)pentyl)amino)-6-(methylamino)nicotinamide], the activity at 0.01 µM is more than 85% and the activity at 0.1 µM was more than 85%.
In the case of `CNc1ccc(C(=O)Nc2ccc(N(C)C)nn2)c(NCCCCCCNC(=O)CN2CCN(Cc3ccc(Nc4ncc(F)c(-c5cc(F)c6nc(C)n(C(C)C)c6c5)n4)nc3)CC2)n1` [CPD-612, N-(6-(dimethylamino)pyridazin-3-yl)-2-((6-(2-(4-((6-((5-fluoro-4-(4-fluoro-1-isopropyl-2-methyl-1H-benzo[d]imidazol-6-yl)pyrimidin-2-yl)amino)pyridin-3-yl)methyl)piperazin-1-yl)acetamido)hexyl)amino)-6-(methylamino)nicotinamide], the activity at 0.01 µM is more than 85% and the activity at 0.1 µM is more than 85%.
For `CNc1ccc(C(=O)Nc2ccc(N(C)C)nn2)c(NCCCCCCCNC(=O)CN2CCN(Cc3ccc(Nc4ncc(F)c(-c5cc(F)c6nc(C)n(C(C)C)c6c5)n4)nc3)CC2)n1` [CPD-613, N-(6-(dimethylamino)pyridazin-3-yl)-2-((7-(2-(4-((6-((5-fluoro-4-(4-fluoro-1-isopropyl-2-methyl-1H-benzo[d]imidazol-6-yl)pyrimidin-2-yl)amino)pyridin-3-yl)methyl)piperazin-1-yl)acetamido)heptyl)amino)-6-(methylamino)nicotinamide], the activity at 0.01 µM was more than 85% and the activity at 0.1 µM was more than 85%.
Consider `CNc1ccc(C(=O)Nc2ccc(N(C)C)nn2)c(NCCCCCCCCNC(=O)CN2CCN(Cc3ccc(Nc4ncc(F)c(-c5cc(F)c6nc(C)n(C(C)C)c6c5)n4)nc3)CC2)n1` [CPD-614, N-(6-(dimethylamino)pyridazin-3-yl)-2-((8-(2-(4-((6-((5-fluoro-4-(4-fluoro-1-isopropyl-2-methyl-1H-benzo[d]imidazol-6-yl)pyrimidin-2-yl)amino)pyridin-3-yl)methyl)piperazin-1-yl)acetamido)octyl)amino)-6-(methylamino)nicotinamide], for which the activity at 0.01 µM is more than 85% and the activity at 0.1 µM was more than 85%.
Consider `CNc1ccc(C(=O)Nc2ccc(N(C)C)nn2)c(NCCOCCNC(=O)CN2CCN(Cc3ccc(Nc4ncc(F)c(-c5cc(F)c6nc(C)n(C(C)C)c6c5)n4)nc3)CC2)n1` [CPD-615, N-(6-(dimethylamino)pyridazin-3-yl)-2-((2-(2-(2-(4-((6-((5-fluoro-4-(4-fluoro-1-isopropyl-2-methyl-1H-benzo[d]imidazol-6-yl)pyrimidin-2-yl)amino)pyridin-3-yl)methyl)piperazin-1-yl)acetamido)ethoxy)ethyl)amino)-6-(methylamino)nicotinamide], for which the activity at 0.01 µM was more than 85% and the activity at 0.1 µM was more than 85%.
For the compound `CNc1ccc(C(=O)Nc2ccc(N(C)C)nn2)c(NCCOCCOCCC(=O)N2CCN(c3ccc(Nc4ncc5cc(C(=O)N(C)C)n(C6CCCC6)c5n4)nc3)CC2)n1` [CPD-623, 7-cyclopentyl-2-((5-(4-(3-(2-(2-((3-((6-(dimethylamino)pyridazin-3-yl)carbamoyl)-6-(methylamino)pyridin-2-yl)amino)ethoxy)ethoxy)propanoyl)piperazin-1-yl)pyridin-2-yl)amino)-N,N-dimethyl-7H-pyrrolo[2,3-d]pyrimidine-6-carboxamide], the activity at 0.01 µM is more than 85% and the activity at 0.1 µM was more than 85%.
For `CNc1ccc(C(=O)Nc2ccc(N(C)C)nn2)c(NCCNC(=O)CN2CCN(c3ccc(Nc4ncc5cc(C(=O)N(C)C)n(C6CCCC6)c5n4)nc3)CC2)n1` [CPD-624, 7-cyclopentyl-2-((5-(4-(2-((2-((3-((6-(dimethylamino)pyridazin-3-yl)carbamoyl)-6-(methylamino)pyridin-2-yl)amino)ethyl)amino)-2-oxoethyl)piperazin-1-yl)pyridin-2-yl)amino)-N,N-dimethyl-7H-pyrrolo[2,3-d]pyrimidine-6-carboxamide], the activity at 0.01 µM fell in the range of 55 to 85% and the activity at 0.1 µM fell in the range of 55 to 85%.
